Earlier results, collected in the CATMoS acute toxicity set (Mansouri et al. 2021).
Where “and” joins values, the source holds several entries; their conditions need not be identical. Identical values can stand only once. *1 amine or outer side, *2 acyl side, *3 side chain or, on linkers, in order; H or OH if unused. Where a SMILES comes first, the peptide text is derived from it. Bridges are numbered along the chain shown (N, C = ends). Roman numbers before positions name the chains, in order. [ ]: non-standard residue; d: D form. Actinocin(9to1) = Cc1c2oc3c(C)ccc(C(=O)[*:1])c3nc-2c(C(=O)[*:2])c(N)c1=O; NMeV = CN[C@H](C(=O)O)C(C)C; Sar = CNCC(=O)O

Assay: rat acute oral toxicity
Details: in vivo

SMILES	LD50
O=S(=O)(O)c1ccccc1C=Cc1ccc(-c2ccc(C=Cc3ccccc3S(=O)(=O)O)cc2)cc1	5580 mg/kg
Cl/C(=N/Nc1c(Cl)cc(Cl)cc1Cl)c1ccccc1	718 mg/kg
CCN(CC)CCSC(=O)C(c1ccccc1)c1ccccc1	2720 mg/kg
CCCCCCCCS(=O)CCCCl (stereo not given)	5660 mg/kg
COP(=S)(OC)SC(C)N1CC(=O)C(=O)C1 (stereo not given)	5.6 mg/kg
O=C1C(Cl)C(CCl)CN1c1cccc(C(F)(F)F)c1 (stereo not given)	3650 mg/kg
COP(=O)(OC)Oc1ccc([N+](=O)[O-])c(Cl)c1	10 mg/kg
CCCCCCCCCCCCCCCN	660 mg/kg
CCCCC1C(=O)NC(=O)N(C2CCCCC2)C1=O (stereo not given)	1120 mg/kg
ClCc1ccc(CCl)cc1	1280 mg/kg
OC1(c2cccc(Cl)c2)c2ccccc2C2=NCCN21 (stereo not given)	200 mg/kg
COC(=O)C(C(=O)Cc1c(C)n(C(=O)c2ccc(Cl)cc2)c2ccc(OC)cc12)C(=O)OC	208 mg/kg
C[C@]12C=CC(=O)C=C1CC[C@@H]1[C@@H]2[C@@H](O)C[C@@]2(C)[C@H]1CC[C@]2(O)C(=O)COC(=O)CCCc1ccc(N(CCCl)CCCl)cc1	530 mg/kg
Cc1ncc2coc(OCCO)c2c1O	2200 mg/kg
CNC(=O)ON=C1SCCOC1C (stereo not given)	6 mg/kg
COc1cc(C(=O)c2ccc(Cl)cc2)cc(OC)c1OCCN1CCOCC1	1290 mg/kg
CN(C)P(=O)(N(C)C)N(C)C	2650 mg/kg
C=COCCOCCOC=C	3730 mg/kg
CCN1CN(CC)CN(CC)C1	316 mg/kg
COc1cccc(O)c1	597 mg/kg
OCCC(F)(F)C(F)(F)C(F)(F)C(F)(F)C(F)(F)C(F)(F)F	1750 mg/kg
O=CC(Br)=Cc1ccccc1	1450 mg/kg
Nc1cc([N+](=O)[O-])ccc1Cl	2020 mg/kg

SMILES	LD50
CS(=O)(=O)Oc1ccc(Cl)cc1Cl	2790 mg/kg
CCCCCCCCCCCC[N+](C)(C)Cc1ccc(CC)cc1	700 mg/kg
CC(C)CC(C)CC(CC(C)C)OCCO (stereo not given)	5650 mg/kg
C[C@H]1O[C@H](O[C@H]2[C@H](O)[C@@H](O)[C@@H](O)[C@H](O)[C@@H]2O)[C@@H](N)C[C@@H]1NC(=N)C(=O)O	22000 mg/kg and 11400 mg/kg
C=C(C)C(C)=O	180 mg/kg
COP(=O)(OC)SCN1C(=O)c2ccccc2C1=O	50 mg/kg
C=CCNC(=S)Nc1ccccc1	750 mg/kg
CC=CC(C)=O	3200 mg/kg
O=S(=O)(c1ccc(NC([C@H](O)[C@@H](O)[C@H](O)[C@H](O)CO)S(=O)(=O)O)cc1)c1ccc(NC([C@H](O)[C@@H](O)[C@H](O)[C@H](O)CO)S(=O)(=O)O)cc1 (stereo not given in full)	3000 mg/kg
CC(=O)O[C@H]1C[C@H](O[C@H]2[C@@H](OC=O)C[C@H](O[C@H]3[C@@H](OC=O)C[C@H](O[C@H]4CC[C@@]5(C)[C@H](CC[C@@H]6[C@@H]5CC[C@]5(C)[C@@H](C7=CC(=O)OC7)[C@@H](OC=O)C[C@]65O)C4)O[C@@H]3C)O[C@@H]2C)O[C@H](C)[C@H]1OC=O	39 mg/kg
CCCC(=O)c1ccc(N)cc1	84 mg/kg
O=C1CN2CCOC2(c2ccccc2Cl)c2cc(Cl)ccc2N1 (stereo not given)	1780 mg/kg
OCCN1CCCCC1	1500 mg/kg
C=COCCSCCCC	2830 mg/kg
CC1OC1C (stereo not given)	2150 mg/kg
COC(C)N(C)N=O (stereo not given)	240 mg/kg
CCCCCCOC(=O)C(O)c1ccccc1 (stereo not given)	17000 mg/kg
O=C1NC(=O)C2C3C(C(O)(c4ccccc4)c4ccccn4)=CC(C3=C(c3ccccc3)c3ccccn3)C12 (stereo not given)	6 mg/kg
CC(=O)OC(C)(C)Cc1ccccc1	3300 mg/kg
CCOC(=O)c1c(C)cc2c(CO)n[nH]c(=O)c2c1C	1750 mg/kg
CCc1ccc(C)cc1	4850 mg/kg
CCOc1ccc(Cl)cc1C(CN1CCCCC1)C(C)CC (stereo not given)	445 mg/kg
CC(=O)OC(c1ccc(Cl)c(Cl)c1)C(Cl)(Cl)Cl (stereo not given)	10000 mg/kg

SMILES	LD50
CCCC1OCS/C1=N\OC(O)=NC (stereo not given)	83 mg/kg
C[N@+]12CCCC[C@@H]1CCC(=C(c1cccs1)c1cccs1)C2	1180 mg/kg
CCn1nc(C(=O)O)c(=O)c2cc3c(cc21)OCO3	3610 mg/kg
O=C(Cc1ccccc1)OCCc1ccccc1	15000 mg/kg
CC(C)(O)C(=O)c1ccc(OCCO)cc1	4080 mg/kg
O=[N+]([O-])c1cc([N+](=O)[O-])c(F)cc1F	50 mg/kg
CN(C)CCCC1c2ccccc2Nc2ccc(Cl)cc21 (stereo not given)	379 mg/kg
COc1cc(N)c(Cl)cc1C(=O)NC1CCN(CCCOc2ccc(F)cc2)CC1OC (stereo not given)	4170 mg/kg
CC1(C)S[C@@H]2[C@H](NC(=O)C(C(=O)O)c3ccsc3)C(=O)N2[C@H]1C(=O)O (stereo not given in full)	16000 mg/kg
C=CCC1(C(C)CC)C(=O)NC(=O)NC1=O (stereo not given)	57.5 mg/kg
CCc1c(C)nc2ccccn2c1=O	1000 mg/kg
O=C(O)Cc1ccccc1	2250 mg/kg
FC(F)(F)C(=NOCC1OCCO1)c1ccc(Cl)cc1	669 mg/kg
C/C(=N/NC(=O)c1ccncc1)c1ccco1	110 mg/kg
CC1(C)CO1	3890 mg/kg
CCSC(SCC)c1ccccc1OC(=O)NC	500 mg/kg
CNC(=O)Nc1nc2ccccc2s1	1280 mg/kg
O=c1[nH]nc2n1-c1cc([N+](=O)[O-])cc([N+](=O)[O-])c1OC2	3690 mg/kg
CCCCCCCCCCCCCCCCCCN(C)C	200 mg/kg
O=C1NC(CCCl)Oc2ccccc21 (stereo not given)	10000 mg/kg
CCOP(=S)(OC(C)C)ON1C(=O)c2ccccc2C1=O (stereo not given)	250 mg/kg
COc1ccc2c(c1)C13CCCCC1C(C2)N(C)CC3 (stereo not given)	235 mg/kg
NCCOCNc1ccccc1	0.625 mg/kg

SMILES	LD50
O=C(c1ccc(Cl)cc1)n1cc(Cc2nn[nH]n2)c2ccccc21	1200 mg/kg
CCCCc1c(OC(=O)c2ccc3c(c2)OCO3)n(-c2ccccc2)n(-c2ccccc2)c1=O	1370 mg/kg
CCOC(=O)OC(C)OC1=C(C(=O)Nc2ccccn2)N(C)S(=O)(=O)c2ccccc21 (stereo not given)	747 mg/kg
CCOC(=O)COc1ccc2c(C)c(CCN(CC)CC)c(=O)oc2c1Cl	1250 mg/kg
Cc1ccccn1	790 mg/kg
N=C(N)NC(=O)Cc1c(Cl)cccc1Cl	142 mg/kg
O=C(CCC(=O)OC1CCCCC1)OC1CCCCC1	12000 mg/kg
O=C(O)C(Cl)CCl (stereo not given)	289 mg/kg
O=COCCOC=O	1510 mg/kg
C#CCSP(=O)(NC(=O)CC)OC (stereo not given)	500 mg/kg
CC(=O)OCOC(=O)C1=C(COC(N)=O)SC2C(C(C)O)C(=O)N12 (stereo not given)	7230 mg/kg
CCOP(=O)(OC=C(Cl)Cl)OCC	2.5 mg/kg
COc1ccc(C(=C(c2ccccc2)[N+](=O)[O-])c2ccc(OCCN3CCCC3)cc2)cc1	1780 mg/kg
COC(=O)c1c(Cl)c(Cl)c(C(=O)N(C)OC)c(Cl)c1Cl	1170 mg/kg
O=C(CCN1CCN2c3ccccc3CCC2C1)Cc1ccc(F)cc1 (stereo not given)	800 mg/kg
O=[N+]([O-])c1cc(I)c(O)c(I)c1	170 mg/kg
c1ccc2c(c1)CCCC2C1=NCCN1 (stereo not given)	785 mg/kg
CCCCO[Si](OCCCC)(OCCCC)N(C)C1CCCCC1	3550 mg/kg
CCCCN(CC)N=O	380 mg/kg
CN(C)CCCSc1ccccc1NC(=O)C=Cc1ccccc1	1500 mg/kg
CC(C)(C)C(CS(C)(=O)=O)=NO	734 mg/kg
O=[N+]([O-])c1cc([N+](=O)[O-])c(Cl)c(S(=O)(=O)O)c1	1460 mg/kg
C=CCOC(=O)CCCCCCC	570 mg/kg

SMILES	LD50
CCCCCN(C)N=O	120 mg/kg
CCN(CCCCCCOC(=O)c1ccc(OC)c(OC)c1)C1CCc2cc(OC)c(OC)cc2C1 (stereo not given)	561 mg/kg
Cc1c2oc3c(C)ccc(C(=O)N[C@@H]4C(=O)N[C@H](C(C)C)C(=O)N5CCC[C@H]5C(=O)N(C)CC(=O)N(C)[C@@H](C(C)C)C(=O)O[C@@H]4C)c3nc-2c(C(=O)N[C@@H]2C(=O)N[C@H](C(C)C)C(=O)N3CCC[C@H]3C(=O)N(C)CC(=O)N(C)[C@@H](C(C)C)C(=O)O[C@@H]2C)c(N)c1=O (I: T[dV]P[Sar][NMeV] / II: T[dV]P[Sar][NMeV]; ester I:1-I:C, II:1-II:C; linker I:N-II:N via Actinocin(9to1))	7.2 mg/kg
CC(=O)N(C)N=O	20 mg/kg
CC(C)COC(=O)C(C)Oc1ccc(Oc2ccc(Cl)cc2)cc1 (stereo not given)	723 mg/kg
CC(C)COC(=O)COc1ccc(Cl)cc1Cl	300 mg/kg
CC(=O)Oc1ccc(C2(c3ccc(OC(C)=O)cc3)C(=O)N(C(C)=O)c3ccccc32)cc1	500 mg/kg
C=CCOC=O	124 mg/kg
CC[N+](C)(C)CCO	6930 mg/kg
COc1cc2c(cc1OC)-c1c(OC)c(OC)cc3c1C(C2)N(C)CC3 (stereo not given)	545 mg/kg
CC(Cl)(Cl)C(=O)OCCOc1cc(Cl)c(Cl)cc1Cl	1000 mg/kg
CC(C(=O)O)c1cccc(Oc2ccccc2)c1 (stereo not given)	800 mg/kg
CCO[SiH](Cl)OCC	6300 mg/kg
CCCC1=NN(c2ccccc2)C(=O)C1C=O (stereo not given)	765 mg/kg
CCCOP(=O)(SCCC)SCCC	129 mg/kg
O=C(O)C(F)(F)C(F)(F)C(F)(F)C(F)(F)C(F)(F)C(F)(F)C(F)(F)F	430 mg/kg
CC(Oc1cccc2ccccc12)C(N)=NO (stereo not given)	90 mg/kg
NC(=O)CCN1CCN(C2Cc3cc(Cl)ccc3Sc3cc(F)ccc32)CC1 (stereo not given)	472 mg/kg and 490 mg/kg
CC(=O)OCC1=C(C(=O)O)N2C(=O)[C@@H](NC(=O)CSc3ccncc3)[C@H]2SC1	16400 mg/kg
CCCCCCCc1ccc(O)cc1O	1300 mg/kg
CNC(=O)c1cc(OC)n(-c2cccc(Cl)c2)n1	1540 mg/kg
O=C1OC2(c3ccc(O)cc3Oc3cc(O)ccc32)c2ccccc21	6720 mg/kg
CCOC(=O)/C=C1/SC(N2CCCCC2)C(=O)N1C (stereo not given)	10200 mg/kg

SMILES	LD50
O=C(SCc1ccccc1)N1CCOCC1	50 mg/kg
CC(=NOC(=O)N(C)SSN(C)C(=O)ON=C(C)SCCC#N)SCCC#N	80 mg/kg
N#CCCN(CCO)c1ccccc1	3210 mg/kg
CCS(=O)(=O)CCOP(=S)(OC)OC	500 mg/kg
FC(F)(F)c1nc2c(Cl)cccc2[nH]1	19.2 mg/kg
CCOC(=O)OC(=O)OCC	850 mg/kg
CN1COCN(Cc2cnc(Cl)s2)C1=N[N+](=O)[O-]	1560 mg/kg
CCCCn1c2ccccc2c2cc(N)ccc21	946 mg/kg
CC(OCCCl)OCCCl	310 mg/kg
O=C(NC1CCSC1=O)c1cccnc1 (stereo not given)	4500 mg/kg
O=C1CN(N=Cc2ccc([N+](=O)[O-])o2)C(=O)N1	604 mg/kg
CC(=O)OCCOCCOCCOC(C)=O	15600 mg/kg
COP(N)(=S)SC (stereo not given)	250 mg/kg
COC(C)=NC#N	432 mg/kg
O=[N+]([O-])c1ccc(Oc2c(F)cc(Cl)cc2Cl)cc1	2890 mg/kg
CCCSP(=O)(OCC)Oc1ccc(Cl)cc1Cl (stereo not given)	320 mg/kg
S=C1NCCC(COc2ccccc2)O1 (stereo not given)	2200 mg/kg
CCCCCCCCN1CCCC1=O	2050 mg/kg
C=CC(C)NC(=S)NNC(=S)NC (stereo not given)	1000 mg/kg
CN(C)CCN(Cc1ccsc1)c1ccccn1	525 mg/kg
